Data published in patent US20230143042A1, “SYSTEM AND METHOD FOR AEROSOL PARTICLE PRODUCTION OF SUBMICRON AND NANO STRUCTURED MATERIALS” (The Trustees of Princeton University, priority 2020, published 2023).

Experiment: Size of dried aerosol particles by scanning electron microscopy
Type: physicochemical
Details: atomized at 1.5 bar gauge (TIPT-based sol 2.5 bar), dried in room air ~23° C., ~30% RH
Method: Various concentrations (e.g., 0.5-15% wt.) of solutions of sodium chloride in deionized water was prepared by mixing the crystals of table salt (NaCl) with deionized water at 45° C. for 15 min. The procedure for preparing precursor of silica (SiO2) was: tetraethoxysilane (TEOS), ethanol, deionized water, and HCl (mole ratio 1:3.8:1:5×10−5) were mixed at 60° C. for 120 min and then aged at room temperature under continuous stirring up to 43 hours. For synthesis of titania (TiO2) particles, titanium (IV) tetraisopropoxide (TIPT) and titanium (IV) butoxide (TBT)-based precursors were utilized. […]
For the salt solutions, the temperature and relative humidity of room air used for drying of droplets were ˜23° C. and ˜30% respectively. […] Provided the measured air velocity used to dry the droplets is ˜0.1-0.5 m/s (laminar flow, Re=300-1600), in terms of the drying kinetics of a single droplet, the generated droplets are expected to turn into dry particles after traveling 0.04-400 μm in room air, whereas the overall particle residence time in the setup is ˜1-5 s, which is much longer than the needed drying time. […]

## [Cl-].[Na+] [NaCl, sodium chloride]
  mean particle size: 227 nm
